# From patent publication US20190223450A1, “MICROALGAE EXTRACT FOR AGRICULTURAL USE” (priority 2015, published 2019)
# What was measured:
# Plasmopara viticola = test: Protection of vine foliar discs and potted vine plants against Plasmopara viticola (peronospora); format: in vivo; conditions: vine plants affected by peronospora
# Description: The field tests were performed on vine plants affected by peronospora. The potential of certain biocontrol and plant extract products for protection against Plasmopara viticola (peronospora) was also assessed, since some chemical and natural substances can reduce the plants' susceptibility. In particular, comparisons were performed on the use of commercial products or experimental products: • EXPERIMENTAL PRODUCT 1 (EP1) yeast extract • EXPERIMENTAL PRODUCT 2 (EP2) plant extract • EXPERIMENTAL PRODUCT 3 (EP3) Aureobasidium pullulans • CANG extract of Solidago canadensis • P E N extract of mycelium of Penicillium crysogenum • LIN linoleic acid • BABA—chemical elicitors of 3-dl-β-aminobutyric acid • BTH—chemical elicitors of benzothiadiazole • CP—comparator product: extract of microalgae • MBGPT1—alginate extract of Phaeodactylum tricornutum obtained according to the method described above • chrysolaminarin from microalga
# (§1) The efficacy of the treatments using the products listed above was assessed on the basis of the induced resistance using foliar discs and potted vine plants. The rate of induced resistance was determined on the basis of the increase in the content of pathogenesis-related (PR) proteins including: peroxidase, polyphenoloxidase, Beta 1,3-glucanase, phenylalanine ammonia-lyase, stilbene synthase, PR-1 protein and caffeoyl coenzyme A-3-O-methyltransferase.
# [1] = test system: pathogenesis-related (PR) proteins; test: Induced resistance in vine: resistance-linked metabolites and pathogenesis-related (PR) proteins; format: in vivo, vine plants; conditions: for production of metabolites linked to resistance phenomena / response: vine plants
# Description: as §1
# zoospores = test: Inhibition of zoospores (mobility); parameters: species or system Plasmopara viticola
SMILES,protection (Plasmopara viticola),production of metabolites linked to resistance phenomena / response [1],formation of necrotic spots and PR proteins ([1]; immediately after inoculation),inhibition of the zoospores (mobility) (zoospores)
"CCCCC/C=C\C/C=C\CCCCCCCC(=O)O [LIN, linoleic acid]",insignificant protection,induced the production of a wide range of metabolites linked to resistance phenomena,,
"CC(N)CC(=O)O (racemic) [BABA, 3-dl-β-aminobutyric acid]",,,caused the formation of necrotic spots and PR proteins immediately after inoculation,unable to inhibit the zoospores
"c1ccc2snnc2c1 [BTH, benzothiadiazole]",,induced the production of a wide range of metabolites linked to resistance phenomena,,
